In patent US20110275643A1, “AROYLQUINOLINE COMPOUNDS” (NATIONAL HEALTH RESEARCH INSTITUTES, priority 2010, published 2011):
Like-named read-outs stand apart in the source and are kept apart here.

Experiments:
[1] = tested on: stomach carcinoma MKN45 cells; assay: In vitro cell growth inhibition, methylene blue dye assay, MKN45 cells; format: cell-based, Human; conditions: Homo sapiens, read-out: IC50 on the proliferation of cells, MKN45
Method: (§1) Human oral epidermoid carcinoma KB cells, non-small-cell lung carcinoma H460 cells, colorectal carcinoma HT29 cells and stomach carcinoma MKN45 cells were maintained in RMPI-1640 medium supplied with 5% fetal bovine serum (FBS). […] Cells in logarithmic phase were cultured at a density of 5000 cells/mL/well in a 24-well plate. KB-VIN10 cells were cultured in drug-free medium for 3 days prior to use. The cells were exposed to various concentrations of the test drugs for 72 hours. The methylene blue dye assay was used to evaluate the effect of the test compounds on cell growth (Finlay et al., 1984).

[2] = tested on: five cancer cell lines (KB, H460, HT29, MKN45, KB-VIN10); assay: Antiproliferative activity, mean over five cancer cell lines; format: cell-based, Human
Method: The synthesized compounds 5 to 17 were evaluated for antiproliferative activities against four carcinoma cells, oral epidermoid carcinoma KB cells, non-small-cell lung carcinoma H460 cells, colorectal carcinoma HT29 cells and stomach carcinoma MKN45 cells, as well as the MDR-positive cell lines KB-VIN10, that overexpressed P-gp 170/MDR (Table 1). The controls were compounds 1 and 3.
as §1

[3] = tested on: oral epidermoid carcinoma KB cells; assay: In vitro cell growth inhibition, methylene blue dye assay, KB cells; format: cell-based, Human; conditions: Homo sapiens
Method: as §1

[4] = tested on: colorectal carcinoma HT29 cells; assay: In vitro cell growth inhibition, methylene blue dye assay, HT29 cells; format: cell-based, Human; conditions: Homo sapiens, read-out: IC50 on the proliferation of cells, HT29
Method: as §1

[5] = tested on: non-small-cell lung carcinoma H460 cells; assay: In vitro cell growth inhibition, methylene blue dye assay, H460 cells; format: cell-based, Human; conditions: Homo sapiens, read-out: IC50 on the proliferation of cells, H460
Method: as §1

[6] = tested on: KB-VIN10 cells (overexpression of P-gp170/MDR); assay: In vitro cell growth inhibition, methylene blue dye assay, MDR-positive KB-VIN10 cells; format: cell-based, Human; conditions: Homo sapiens, read-out: IC50 on the proliferation of cells, KB-VIN10
Method: as §1

[7] = MKN-45, MKN45 cells, 72 hours, mean ± SD
[8] = KB cells, 72 hours, mean ± SD, read-out: IC50 on the proliferation of cells, KB
[9] = HT-29, HT29 cells, 72 hours, mean ± SD
[10] = NCI-H460, H460 cells, 72 hours, mean ± SD
[11] = KB-VIN10 cells, 72 hours, mean ± SD
[12] = read-out: 50% Inhibition concentration (IC50) on the proliferation of KB cells line, Table 2, KB cells

Compound | melting point [°C] | IC50 [3, 12] [nM] | other results
COc1cc(C(=O)c2ccc3c(ccc[n+]3[O-])c2)cc(OC)c1OC [Compound 16, 6-(3′,4′,5′-trimethoxybenzoyl)quinoline N-oxide] | 175 to 176 |  | IC50 [1, 7]: 617 ± 85 nM; fold reduction of activity compared with compound 9 ([2]; versus compound 9): > 10 fold; IC50 [3, 8]: 830 ± 172 nM; IC50 [4, 9]: 872 ± 86.2 nM; IC50 [5, 10]: 1100 ± 150 nM; IC50 [6, 11]: 764 ± 111 nM
COc1cc(C(=O)c2cccc3cccnc23)cc(OC)c1OC [Compound 11, 8-(3′,4′,5′-trimethoxybenzoyl)quinoline] | 153 to 155 |  | IC50 [1, 7]: 3200 ± 700 nM; IC50 [3, 8]: 8100 ± 700 nM; IC50 [4, 9]: 4500 ± 1100 nM; IC50 [5, 10]: 5000 ± 920 nM; IC50 [6, 11]: 6000 ± 800 nM
COc1cc(C(=O)c2ccnc3c(OC)cccc23)cc(OC)c1OC [Compound 13, 8-methoxy-4-(3′,4′,5′-trimethoxybenzoyl)quinoline] | 162.5 to 164.1 |  | IC50 [1, 7]: 147 ± 25.4 nM; cytotoxicity / antiproliferative activity in words [2]: over an order of magnitude increase in activity over the parental compound 7; IC50 ([2]; Homo sapiens, mean of KB, H460, HT29, MKN45, KB-VIN10, read-out: mean IC50 value against five cancer cell lines): 164 nM; IC50 [3, 8]: 155 ± 15.1 nM; IC50 [4, 9]: 162 ± 28.7 nM; IC50 [5, 10]: 193 ± 35.3 nM; IC50 [6, 11]: 165 ± 33 nM
COc1cc(C(=O)c2ccc3c(-c4ccc(O)cc4)c(OC)ccc3n2)cc(OC)c1OC [Compound 30, 5-(4″-hydroxyphenyl)-6-methoxy-2-(3′,4′,5′-trimethoxybenzoyl)quinoline] | 201 to 203 | > 10000 | 
COc1cc(C(=O)c2ccc3c(C#N)c(OC)ccc3n2)cc(OC)c1OC [Compound 43, 5-cyano-6-methoxy-2-(3′,4′,5′-trimethoxybenzoyl)quinoline] | 191 to 192 | 17 | 
COc1cc(C(=O)c2cccc3ncccc23)cc(OC)c1OC [Compound 8, 5-(3′,4′,5′-trimethoxybenzoyl)quinoline] | 145 to 147 |  | IC50 [1, 7]: 1200 ± 150 nM; IC50 [3, 8]: 2900 ± 400 nM; IC50 [4, 9]: 2800 ± 310 nM; IC50 [5, 10]: 3800 ± 620 nM; IC50 [6, 11]: 2300 ± 400 nM
COc1cc(C(=O)c2ccc3c(ccc[n+]3C)c2)cc(OC)c1OC.[I-] [Compound 17, 6-(3′,4′,5′-trimethoxybenzoyl)-1-methylquinolinium iodide] | 187 to 188 |  | IC50 [1, 7]: > 10000 nM; cytotoxicity / antiproliferative activity in words ([2]; five cancer cell lines): drastic loss of activity; IC50 [3, 8]: > 10000 nM; IC50 [4, 9]: > 10000 nM; IC50 [5, 10]: > 10000 nM; IC50 [6, 11]: > 10000 nM
COc1cc(C(=O)c2ccc3c(Cl)c(OC)ccc3n2)cc(OC)c1OC [Compound 47, 5-chloro-6-methoxy-2-(3′,4′,5′-trimethoxybenzoyl)quinoline] | 176 to 177 | 45 | 
COc1ccc(C(=O)c2ccc3c(OC)c(OC)c(OC)cc3n2)cc1 [Compound 49, 2-(4′-methoxybenzoyl)-5,6,7-trimethoxyquinoline] | 103 to 105 | > 1000 | 
COc1cc(C(=O)c2ccc3c(C#CC(C)(C)O)c(OC)ccc3n2)cc(OC)c1OC [Compound 44, 5-(3″-hydroxy-3″-methylbut-1″-ynyl)-6-methoxy-2-(3′,4′,5′-trimethoxybenzoyl)quinoline] | 151 to 153 | 495 | 
COc1cc2nc(C(=O)c3ccc(F)cc3)ccc2c(OC)c1OC [Compound 51, 2-(4′-fluorobenzoyl)-5,6,7-trimethoxyquinoline] | 145 to 146 |  | 
COc1cc(C(=O)c2ccc3cccnc3c2)cc(OC)c1OC [Compound 10, 7-(3′,4′,5′-trimethoxybenzoyl)quinoline] | 149 to 151 |  | IC50 [1, 7]: > 10000 nM; cytotoxicity / antiproliferative activity in words [2]: loss of cytotoxicity; IC50 [3, 8]: > 10000 nM; IC50 [4, 9]: > 10000 nM; IC50 [5, 10]: > 10000 nM; IC50 [6, 11]: > 10000 nM
COc1cc(C(=O)c2ccc3c(I)c(OC)ccc3n2)cc(OC)c1OC [Compound 34, 5-iodo-6-methoxy-2-(3′,4′,5′-trimethoxybenzoyl)quinoline] | 202 to 204 | 451 | 
COc1cc(C(=O)c2ccc3c(-c4ccncc4)c(OC)ccc3n2)cc(OC)c1OC [Compound 33, 6-methoxy-5-pyridinyl-2-(3′,4′,5′-trimethoxybenzoyl)quinoline] | 203 to 205 | 472 | 
COc1cc(C(=O)c2ccnc3ccccc23)cc(OC)c1OC [Compound 7, 4-(3′,4′,5′-trimethoxybenzoyl)quinoline] | 109 to 110 |  | IC50 ([1]; MKN-45, 72 h): 920 ± 90 nM; IC50 ([3]; KB, 72 h, read-out: IC50 on the proliferation of cells, KB): 3500 ± 700 nM; IC50 ([4]; HT-29, 72 h): 2300 ± 480 nM; IC50 ([5]; NCI-H460, 72 h): 3800 ± 520 nM; IC50 ([6]; KB-VIN10, 72 h): 2200 ± 600 nM
COc1cc(C(=O)c2cnc3ccccc3c2)cc(OC)c1OC [Compound 6, 3-(3′,4′,5′-trimethoxybenzoyl)quinoline] | 107 to 109 |  | IC50 [1, 7]: 562 ± 42 nM; IC50 [3, 8]: 1800 ± 100 nM; IC50 [4, 9]: 1000 ± 210 nM; IC50 [5, 10]: 1600 ± 380 nM; IC50 [6, 11]: 1100 ± 220 nM
COc1ccc(C(=O)c2ccc3c(OC)c(OC)c(OC)cc3n2)cc1F [Compound 50, 2-(3′-fluoro-4′-methoxybenzoyl)-5,6,7-trimethoxyquinoline] | 137 to 139 | > 10000 | 
COc1cc(C(=O)c2ccc3c(Br)c(OC)ccc3n2)cc(OC)c1OC [Compound 42, 5-bromo-6-methoxy-2-(3′,4′,5′-trimethoxybenzoyl)quinoline] | 163 to 165 | 108 | 

Second part, led by results:

melting point [°C] | IC50 [3, 12] [nM] | Compound | other results
 | 226 | COc1cc2c(C(=O)c3ccc(N(C)C)cc3)ccnc2c(OC)c1OC [Compound 68, 4-[4′-(N,N-dimethyl)-benzoyl]-6,7,8-trimethoxyquinoline] | 
209 to 210 |  | COc1cc(Oc2ccc3c(N)c(OC)ccc3n2)cc(OC)c1OC [Compound 60, 5-amino-6-methoxy-2-(3′,4′,5′-trimethoxyphenoxy)quinoline] | 
222 to 223 | > 10000 | COc1cc(-c2ccc3c(N)c(OC)ccc3n2)cc(OC)c1OC [Compound 58, 5-amino-6-methoxy-2-(3′,4′,5′-trimethoxyphenyl)quinoline] | 
 | < 10 | COc1cc(Sc2ccc3c(N)c(OC)ccc3n2)cc(OC)c1OC [Compound 82, 5-amino-6-methoxy-2-(3′,4′,5′-trimethoxyphenylthio)quinoline] | 
222 to 223 | > 10000 | COc1cc(Nc2ccc3c(N)c(OC)ccc3n2)cc(OC)c1OC [Compound 62, 5-amino-6-methoxy-2-(3′,4′,5′-trimethoxyphenylamino)quinoline] | 
136 to 137 | > 10000 | COc1ccc(-c2ccc3c(OC)c(OC)c(OC)cc3n2)cc1 [Compound 64, 2-(4′-methoxyphenyl)-5,6,7-trimethoxyquinoline] | 
129 to 130 | > 10000 | COc1ccc(-c2ccc3c(OC)c(OC)c(OC)cc3n2)cc1F [Compound 66, 2-(3′-fluoro-4′-methoxyphenyl)-5,6,7-trimethoxyquinoline] | 
117 to 118 | 1670 | COc1ccc(C(=O)c2ccnc3c(OC)c(OC)c(OC)cc23)cc1F [Compound 67, 4-(3′-fluoro-4′-methoxybenzoyl)-6,7,8-trimethoxyquinoline] | 
 | < 10 | COc1cc(S(=O)(=O)c2ccc3c(N)c(OC)ccc3n2)cc(OC)c1OC [Compound 84, 5-amino-6-methoxy-2-(3′,4′,5′-trimethoxyphenylsulfonyl)quinoline] | 
149 to 151 |  | COc1cc(C(=O)c2ccc3nccnc3c2)cc(OC)c1OC [Compound 75, 6-(3′,4′,5′-trimethoxybenzoyl)quinoxaline] | 
 | 471 | COc1cc(C(=O)c2ccc3c(O)c(OC)ccc3n2)cc(OC)c1O [Compound 87, 5-hydroxy-6-methoxy-2-(4′-hydroxy-3′,5′-dimethoxybenzoyl)quinoline] | 
154 to 155 | > 10000 | COc1cc2nc(-c3ccc(N(C)C)cc3)ccc2c(OC)c1OC [Compound 65, 2-[4′-(N,N-dimethylamino)phenyl]-5,6,7-trimethoxyquinoline] | 
 | 1300 | COc1ccc(C(=O)c2ccnc3c(OC)c(OC)c(OC)cc23)cc1 [Compound 54, 4-(4′-methoxybenzoyl)-6,7,8-trimethoxyquinoline] | 
